“Also recorded” adds a separate entry of the source. Peptide text beside a SMILES is read from it. * marks the point of attachment. Cbz = O=C(OCc1ccccc1)*
Legend:
Type in all cases: cell-based, human
PP2A B subunit = test: Western blot of PP2A B subunit in Wnt-activated LNCaP cells
Excerpt: (§1) FIG. 45. Proteasome inhibitors block the suppression of MDM2 phosphorylation and suppress degradation of PP2A B subunit protein in Wnt-activated LNCaP cells. […] There was no change in the PP2A catalytic C subunit levels in Wnt-activated or proteasome-inhibitor treated cells (bottom).
Preparation of cell extracts and western blots. Cells were harvested and protein extracts prepared, quantified and used to prepare Western blots as previously described (Example 1; Yang et al., 2005). Western blots were probed with mouse monoclonal antibodies against human Akt protein, phospho-MDM2 (ser 166), hAR (Santa Cruz Biotechnology Inc., Santa Cruz, Calif.), actin (Sigma Chemical Co., St Louis, Mo.) or with rabbit polyclonal antibodies against phospho-Akt (ser 473) or human MDM2 (Cell Signaling Technology, Beverly, Mass.). Recombinant Wnt-1 protein (HA-tagged) was detected with anti-HA antibody (Clontech Inc., Mountain View, Calif.). Antibody binding to the Western blot was detected as previously described (Yang et al., 2005). Densitometry of films was carried out using a Kodak Image Station 420.

hAR protein = test: Western blot of hAR protein in Wnt-activated LNCaP cells; settings: β-catenin or PCDH-PC transfected or 7 days androgen-free LNCaP
Excerpt: FIGS. 43A-43C. […] FIG. 43A. […] FIG. 43B.
(§2) FIGS. 44A-44B. Suppression of MDM2 expression or direct Akt activity relieves Wnt-mediated suppression of hAR protein expression. FIG. 44A. […] (middle). Actin control (bottom). FIG. 44B. […] Actin control (bottom).
(§3) Cell lines, plasmids and siRNAs. LNCaP, CWR22rv-1, PC-3 and DU145 cells were obtained from ATCC and were passaged in normal (for LNCaP, RPMI 1640 with 10% fetal calf serum and supplements) or androgen-free maintained as previously described (Yang et al., 2005). A defective adenovirus that expresses Wnt-1 protein (Ad-Wnt-1) and control, Lac Z expressing adenovirus (Ad-lac Z) were previously described (Young et al., 1998). These viruses were applied at 20 particles/cell in low serum (2%) medium for 1 h. Expression plasmids containing mutated (stabilized) human β-catenin (Tetsu and McCormick, 1999), dominant negative TCF-4 (Chen et al., 2001) or PCDH-PC cDNA were transfected into cells as previously described (Example 1; Yang et al., 2005). Small interfering (si) RNAs targeting β-catenin or lamin were purchased from Dharmacon Inc. siRNA targeting human MDM2 was purchased from Qiagen Inc (Valencia, Calif.). siRNAs were transfected into cells. Proteasome inhibitors MG132 and lactacystin were purchased from Sigma Chemical Co. (St Louis, Mo.) and were used at 5 (MG 132) or 10 (lactacystin) […] for 12 h prior to cell harvesting. PI3-kinase inhibitor LY294002 (Sigma Chemical Co.) and Akt Inhibitor IV (compound 5233705, EMD Biosciences Inc., San Diego, Calif.) (Kau et al., 2003) were used at 4 and 50 mM concentrations, respectively, for 12 h prior to harvesting cells.
(§4) Preparation of cell extracts and western blots. Cells were harvested and protein extracts prepared, quantified and used to prepare Western blots as previously described (Example 1; Yang et al., 2005). […] Recombinant Wnt-1 protein (HA-tagged) was detected with anti-HA antibody (Clontech Inc., Mountain View, Calif.). Antibody binding to the Western blot was detected as previously described (Yang et al., 2005). […]

MDM2 = test: Western blot of phosphorylated MDM2 in Wnt-activated LNCaP cells; settings: β-catenin transfected or 7 days androgen-free LNCaP
Excerpt: as §2, §1
as §3, with “PI3-kinase inhibitor LY294002 (Sigma Chemical Co.) and Akt Inhibitor IV (compound 5233705, EMD Biosciences Inc., San Diego, Calif.) (Kau et al., 2003) were used at 4 and 50 mM concentrations, respectively, for 12 h prior to harvesting cells.” left out
as §4

NSE and chromogranin-A = test: Western blot of NE biomarkers in LNCaP cells treated with NE transdifferentiation inducers; settings: 1 mM db-cAMP, 50 ng/ml IL-6 or 5 nM NS-398, 5 days
Excerpt: (§5) FIGS. 3A-3D. […] FIG. 3A. […] FIG. 3B. […] FIG. 3C. […] FIG. 3D.

PCDH-PC mRNA = test: RT-PCR of PCDH-PC mRNA in LNCaP cells; settings: 1 mM db-cAMP, 50 ng/ml IL-6 or 5 nM NS-398, 5 days
Excerpt: as §5
FIG. 5A. […] FIG. 5B. […] FIG. 5C.

PCDH-PC = test: Western blot of myc-tagged PCDH-PC in LNCaP cells co-transfected with pPCDH-PC-myc and siRNA; settings: siRNA 100 nM co-transfected with pPCDH-PC-myc, 48 hrs
Excerpt: FIGS. 4A-4B. siRNAs against PCDH-PC suppress PCDH-PC expression and NE transdifferentiation of LNCaP cells. FIG. 4A. LNCaP cells were transfected with the pPCDH-PC-myc expression vector and were co-transfected with siRNA against human lamin or siRNAs 181, 190 or 208 designed to suppress PCDH-PC expression. A Western blot made against protein extracts from these cells were probed with anti-myc (Top Panel) to identify expression of the 110 kd PCDH myc-tagged protein, anti-β-actin (Middle Panel) or anti-human E-cadherin (Bottom Panel). FIG. 4B. A repeated experiment that includes control LNCaP cells (no transfection) or pCMV-PCDH-myc transfected LNCaP cells co-transfected with siRNAs against lamin or against PCDH-PC (181, 190 or 208). The Western blot was probed for NSE expression (Top Panel) or for β-actin expression (Bottom Panel).
Expression Vectors, Transfection Protocols and Luciferase/β-Glactosidase Assays. PCDH-PC cDNA was inserted into the mammalian expression vectors pcDNA3 (Invitrogen Life Technologies, Inc., Carlsbad, Calif.) or into pCMV-myc (BD Biosciences, Clontech, Inc., Palo Alto, Calif.) so that the PCDH-PC product generated from this vector (pPCDH-PC-myc) has a C-terminal myc tag. An expression vector containing cDNA encoding a mutated (stabilized) form of human β-catenin (Tetsu and McCormick, 1999) was used. A dominant-negative Tcf expression vector used was previously described (Chen et al., 2001). The Tcf-sensitive reporter vector, pTOP and a CMV-promoted β-galactosidase expression vector were obtained from Upstate Biotechnology, Inc. Transfections used for protein or RNA extractions were done in 35 cm^2 dishes with cells plated at 50% density 12-16 hrs prior. […] Luciferase activity in cell extracts was measured using the Luciferase Assay System of Promega, Inc. (Madison, Wis.). β-galactosidase activity was also measured in the same cell extracts using the β-galactosidase Enzyme Assay System of Promega, Inc. All experiments involving luciferase reporter vectors were done in triplicate for each point. […]

Question: With CC(C)C[C@@H](C=O)NC(=O)[C@H](CC(C)C)NC(=O)[C@H](CC(C)C)NC(=O)OCc1ccccc1 [MG132] (Cbz-Leu-Leu-Leu-aldehyde) as the compound, how does the “loss of PP2A regulatory subunit B” value (PP2A B subunit) read?
Answer: blocked

Question: And the “Wnt-mediated suppression of hAR protein expression” value (hAR protein)?
Answer: restored to levels commensurate with elevated hAR mRNA levels

Question: What about the “Wnt-mediated upregulation of MDM2 phosphorylation” value (MDM2) of the same compound?
Answer: blocked

Question: How did the “expression of NSE and chromogranin-A proteins” value (NSE and chromogranin-A) turn out when CS(=O)(=O)Nc1ccc([N+](=O)[O-])cc1OC1CCCCC1 [NS-398] was run?
Answer: highly upregulated

Question: What about the “expression of PCDH-PC mRNA” value (PCDH-PC mRNA) of the same compound?
Answer: highly upregulated

Question: Which results are given for CC[n+]1c(/C=C/N(C)c2ccccc2)n(-c2ccccc2)c2ccc(-c3nc4ccccc4s3)cc21.[I-] [compound 5233705]?
Answer: Wnt-mediated suppression of hAR protein expression (hAR protein): significant elevation; also recorded: relieves; Wnt-mediated upregulation of MDM2 phosphorylation (MDM2): able to suppress; also recorded: relieves

Question: CC(=O)N[C@@H](CSC(=O)[C@]1([C@@H](O)C(C)C)NC(=O)[C@H](C)[C@@H]1O)C(=O)O [lactacystin] was tested. Which “loss of PP2A regulatory subunit B” value (PP2A B subunit) did it give?
Answer: blocked

Question: What about the “Wnt-mediated suppression of hAR protein expression” value (hAR protein) of the same compound?
Answer: restored to levels commensurate with elevated hAR mRNA levels

Question: What about the “Wnt-mediated upregulation of MDM2 phosphorylation” value (MDM2) of the same compound?
Answer: blocked

Question: Which results are given for interleukin-6 [IL-6]?
Answer: expression of NSE and chromogranin-A proteins (NSE and chromogranin-A): highly upregulated; expression of PCDH-PC mRNA (PCDH-PC mRNA): highly upregulated

Question: Which “expression of myc-tagged PCDH-PC polypeptide” value (PCDH-PC) does the source give for “siRNA #190: 21 bp siRNA targeting PCDH-PC mRNA position 3098-3117, 19 bp core with UU overhangs (SEQ ID NO:6) (AAACATGCAGAATTCTGAATG; listed as DNA, further chemistry not given here)” here?
Answer: suppressive effects

Question: How did the “expression of myc-tagged PCDH-PC polypeptide” value (PCDH-PC) turn out when “siRNA #208: 21 bp siRNA targeting PCDH-PC mRNA position 3345-3364, 19 bp core with UU overhangs (SEQ ID NO:7) (AAGAAACTAAGGCAGATGATG; listed as DNA, further chemistry not given here)” was run?
Answer: suppressive effects

Reference: US20090311716A1, “METHODS TO TREAT OR PREVENT HORMONE-RESISTANT PROSTATE CANCER USING siRNA [sequence] FOR PROTOCADHERIN-PC, OR OTHER INHIBITORS OF PROTOCADHERIN-PC EXPRESSION OR ACTIVITY” (THE TRUSTEES OF COLUMBIA UNIVERSITY IN THE CITY OF NEW YORK, priority 2005, published 2009)
